Test results: patent US20250281433A1, “NOVEL DERIVATIVE COMPOUND HAVING BIPHENYL GROUP INTRODUCED INTO AMINO-ALKANOIC ACID AND ANTI-INFLAMMATORY COMPOSITION COMPRISING SAME” (AMTIXBIO CO., LTD., priority 2020, published 2025)

System: IL-6 production in RAW264.7 cells
Experiment: LPS-induced IL-6 production in RAW264.7 cells (ELISA)
Assay type: cell-based, mouse
Conditions: Table 3; LPS 1 μg/mL 24 h; compounds at 8 μg/mL (FIG. 1); LPS alone = 100%
Experimental: The inhibitory effect on induced IL-6 cytokine production was analyzed. RAW264.7 cells (obtained from the Korean Cell Line Bank) were seeded at a density of 5×10^5 cells/well in a 12-well plate and stabilized in a CO2 incubator at 37° C. with 5% carbon dioxide and saturated humidity. After 24 hours of incubation, the compounds of the present invention were prepared in DMEM at concentrations of 0 μg/mL or 8 μg/mL and pre-treated for 30 minutes. Next, lipopolysaccharide (LPS, Sigma-Aldrich, Cat No. L2887) was treated to a concentration of 1 μg/mL to induce an inflammatory response for 24 hours. Subsequently, mouse IL-6 ELISA kit (Labiskoma, Cat No. K0331230P) and mouse TNF-α ELISA kit (Labiskoma, Cat No. K0331186P) were used according to the manufacturer's instructions, and absorbance was measured. FK506 (FK-506 monohydrate, manufacturer: MilliporeSigma, product number: F4679, U.S.A) was used as a control substance.
After inducing inflammation as described in (1) and (2) above, the supernatant was collected, and the quantification of IL-6 in the supernatant was performed using the IL-6 ELISA kit (Mouse IL-6 ELISA Kit, pink-ONE, manufactured by Komabiotech, Product No. K0331230P) according to the manufacturer's instructions. Specifically, the amount of IL-6 in the supernatant was quantified according to the ELISA kit protocol, and the absorbance was measured at OD 450 nm using a microplate reader (Multiskan Sky, manufactured by Thermo Fisher Scientific). […] In Table 1 to Table 3, FIG. 1, and FIG. 2, the relative values of IL-6 generated after pretreatment with the compounds of the present invention were expressed as a percentage relative to the IL-6 production (100%) induced by LPS, TNF-α, or IFN-β treatment.

Compared with `CCCC(N)C(=O)Nc1ccc(-c2ccc(OC(F)(F)F)cc2)cc1.Cl` (racemic) [Compound 32, (R)/(S)-2-amino-N-(4′-(trifluoromethoxy)-[1,1′-biphenyl]-4-yl)pentanamide hydrochloride], `CCCC(N)C(=O)NCc1ccc(-c2ccc(OC(F)(F)F)cc2)cc1.Cl` (racemic) [Compound 49, (R)/(S)-2-amino-N-((4′-(trifluoromethoxy)-[1,1′-biphenyl]-4-yl)methyl)pentanamide hydrochloride] is higher in “Relative amount of IL-6 compared to LPS induction (%)” value (from here on “Relative amount … (%)”): 16% for the first, 50% for the second.

Going from `CCCC(C(=O)Nc1ccc(-c2ccc(Cl)c(Cl)c2)cc1)N(C)C` (racemic) [Compound 36, (R)/(S)—N-(3′,4′-dichloro-[1,1′-biphenyl]-4-yl)-2-(dimethylamino)pentanamide] to `CCCC(C(=O)NCc1ccc(-c2ccc(Cl)c(Cl)c2)cc1)N(C)C` (racemic) [Compound 53, (R)/(S)—N-((3′,4′-dichloro-[1,1′-biphenyl]-4-yl)methyl)-2-(dimethylamino)pentanamide], the “Relative amount … (%)” value falls from 9% to 5%.

First: CCCC(N)C(=O)NCc1ccc(-c2ccc(Cl)c(Cl)c2)cc1.Cl (racemic) [Compound 45, (R)/(S)-2-amino-N-((3′,4′-dichloro-[1,1′-biphenyl]-4-yl)methyl)pentanamide hydrochloride]
Second: CCC(NC)C(=O)NCCc1ccc(-c2ccc(Cl)c(Cl)c2)cc1.Cl (racemic) [Compound 83, (R)/(S)—N-(2-(3′,4′-dichloro-[1,1′-biphenyl]-4-yl)ethyl)-2-(methylamino)butanamide hydrochloride]
The “Relative amount … (%)” value of the first is lower: 3% for the first, 9% for the second.

First: CCCC(N)C(=O)NCc1ccc(-c2ccc(C(F)(F)F)cc2)cc1.Cl (racemic) [Compound 47, (R)/(S)-2-amino-N-((4′-(trifluoromethyl)-[1,1′-biphenyl]-4-yl)methyl)pentanamide hydrochloride]
Second: CCCCC(N)C(=O)NCc1ccc(-c2ccc(C(F)(F)F)cc2)cc1.Cl (racemic) [Compound 48, (R)/(S)-2-amino-N-((4′-(trifluoromethyl)-[1,1′-biphenyl]-4-yl)methyl)hexanamide hydrochloride]
The “Relative amount … (%)” value of the first is lower: 12% for the first, 67% for the second.

First: CCCCC(N)C(=O)NCc1ccc(-c2ccc(OC(F)(F)F)cc2)cc1.Cl (racemic) [Compound 50, (R)/(S)-2-amino-N-((4′-(trifluoromethoxy)-[1,1′-biphenyl]-4-yl)methyl)hexanamide hydrochloride]
Second: CCCC(N)C(=O)NCCc1ccc(-c2ccc(OC(F)(F)F)cc2)cc1.Cl (racemic) [Compound 80, (R)/(S)-2-amino-N-(2-(4′-(trifluoromethoxy)-[1,1′-biphenyl]-4-yl)ethyl)pentanamide hydrochloride]
The “Relative amount … (%)” value of the first is higher: 68% for the first, 6% for the second.

Compared with `CCCC(NC)C(=O)NCc1ccc(-c2ccc(C(F)(F)F)cc2)cc1.Cl` (racemic) [Compound 52, (R)/(S)-2-(methylamino)-N-((4′-(trifluoromethyl)-[1,1′-biphenyl]-4-yl)methyl)pentanamide hydrochloride], `CCCC(NC)C(=O)NCCc1ccc(-c2ccc(C(F)(F)F)cc2)cc1.Cl` (racemic) [Compound 87, (R)/(S)-2-(methylamino)-N-(2-(4′-(trifluoromethyl)-[1,1′-biphenyl]-4-yl)ethyl)pentanamide hydrochloride] is higher in “Relative amount … (%)” value: 13% for the first, 24% for the second.

First: CCC(N)C(=O)NCCc1ccc(-c2ccc(C(F)(F)F)cc2)cc1.Cl (racemic) [Compound 76, (R)/(S)-2-amino-N-(2-(4′-(trifluoromethyl)-[1,1′-biphenyl]-4-yl)ethyl)butanamide hydrochloride]
Second: CCCC(N)C(=O)NCCc1ccc(-c2ccc(F)c(F)c2)cc1.Cl (racemic) [Compound 82, (R)/(S)-2-amino-N-(2-(3′,4′-difluoro-[1,1′-biphenyl]-4-yl)ethyl)pentanamide hydrochloride]
The “Relative amount … (%)” value of the first is higher: 9.58% for the first, 3% for the second.
